# Data reported in ChEMBL document CHEMBL6114985, “From Dyrk1A inhibitors to a novel class of antiviral agents: Targeting Enterovirus EV-A71 with 2-aryl-substituted thiophene scaffolds” (Eur J Med Chem, 2025).
# pEC50: −log10 of the molar value.
# What was measured:
# [1] = Selectivity index, ratio of CC50 for human RD cells to EC50 for antiviral activity against enterovirus A71 TW/2231/98 infected in human RD cells; assay type: toxicity, cell-based; conditions: read-out: Ratio CC50/EC50
# [2] = molecular target: Dual specificity tyrosine-phosphorylation-regulated kinase 1A (Homo sapiens, UniProt Q13627); test: Inhibition of DYRK1A (unknown origin) at 25 uM incubated for 1 hr relative to control
# Enterovirus A71 [3] = test: Antiviral activity against Enterovirus A71 TW/2231/98 infected in human RD cells assessed as reduction in cytopathic effect incubated for 3 days; assay type: functional, organism-based; conditions: Enterovirus A, TW/2231/98, RD, 72 h
# [4] = Cytotoxicity against human RD cells assessed as reduction in cell growth incubated for 3 days by MTT assay; assay type: toxicity, cell-based; conditions: time 3 day
# Enterovirus A71 [5] = test: Antiviral activity against Enterovirus A71 4798 assessed as reduction in viral replication; assay type: functional, organism-based; conditions: Enterovirus A
# [6] = Lipophilicity, logD of compound by UPLC-MS analysis; assay type: physicochemical; conditions: octanol/water
# [7] = Metabolic stability in mouse liver microsome assessed as intrinsic clearance incubated for 120 mins by HPLC-MS/MS; assay type: ADME; conditions: liver microsomes, read-out: CLH
# [8] = Metabolic stability in human liver microsome assessed as intrinsic clearance incubated for 120 mins by HPLC-MS/MS; assay type: ADME; conditions: liver microsomes, read-out: CLH
# [9] = Plasma protein binding in human by rapid equilibrium dialysis based HPLC-MS/MS analysis; assay type: ADME, cell-free; conditions: read-out: PPB (converted)
# Human rhinovirus sp. = test: Antiviral activity against Human rhinovirus 71803 assessed as reduction in viral replication; assay type: functional, organism-based
# [10] = Stability in mouse plasma assessed as half life by HPLC-MS/MS; assay type: ADME, cell-free
# enterovirus D68 [11] = test: Antiviral activity against Enterovirus D68 KY 18953 assessed as reduction in viral replication; assay type: functional, organism-based; conditions: Enterovirus D
# Coxsackievirus = test: Antiviral activity against Coxsackievirus assessed as reduction in viral replication; assay type: functional, organism-based
# Enterovirus A71 [12] = test: Antiviral activity against Enterovirus A71 2231 assessed as reduction in viral replication; assay type: functional, organism-based; conditions: Enterovirus A
# enterovirus D68 [13] = test: Antiviral activity against Enterovirus D68 2795 assessed as reduction in viral replication; assay type: functional, organism-based; conditions: Enterovirus D
# [14] = Metabolic stability in human liver microsome assessed as half life incubated for 120 mins by HPLC-MS/MS; assay type: ADME; conditions: liver microsomes
# [15] = Metabolic stability in mouse liver microsome assessed as half life incubated for 120 mins by HPLC-MS/MS; assay type: ADME; conditions: liver microsomes
# [16] = Stability in human plasma assessed as half life by HPLC-MS/MS; assay type: ADME, cell-free
# Influenza A virus = test: Antiviral activity against influenza A virus assessed as reduction in viral replication; assay type: functional, organism-based
# [17] = Plasma protein binding in mouse by rapid equilibrium dialysis based HPLC-MS/MS analysis; assay type: ADME, cell-free; conditions: read-out: PPB (converted)
# Enterovirus A71 [18] = test: Antiviral activity against Enterovirus A71 TW/2231/98 infected in human RD cells assessed as inhibition of viral plaque formation at 45 uM incubated for 3 to 5 days by crystal violet staining based plaque reduction assay relative to control; assay type: functional; conditions: Enterovirus A, TW/2231/98, RD, time 3-5 day
# Herpes Simplexvirus = test: microbe, parasite or virus in culture; conditions: A549
# [19] = Cytotoxicity against human A549 cells infected with Herpes Simplexvirus; assay type: toxicity, cell-based; conditions: A549 cells infected with herpes simplex virus
# Human adenovirus sp. = test: microbe, parasite or virus in culture; conditions: A549
# [20] = Cytotoxicity against human A549 cells infected with Human adenovirus; assay type: toxicity, cell-based
Structure (SMILES),selectivity ratio [1],pEC50 (Enterovirus A71 [3]),CC50 at 72 h [4],other results
COc1ccc(F)c(C(=O)Nc2cc(-c3cccs3)ccn2)c1,14,5.62,33.5 µM,inhibition [2]: 4%
COc1cc(C(=O)Nc2cncc(-c3cc(Br)cs3)c2)ccc1C,–,< 5.00,–,–
O=C(Nc1cncc(-c2cc(-c3cccnc3)cs2)c1)c1ccc(O)cc1,–,< 5.00,> 10 µM,–
COc1ccc(F)c(C(=O)Nc2cncc(-c3cc(-c4cccnc4C)cs3)c2)c1,1.7,5.04,15.6 µM,–
COc1ccc(F)c(C(=O)Nc2cncc(-c3cc(-c4ccccc4)cs3)c2)c1,–,< 5.00,–,–
COc1ccc(F)c(S(=O)(=O)Nc2cncc(-c3cccs3)c2)c1,–,< 5.00,–,–
COc1ccc(F)c(C(=O)Nc2cncc(-c3cccs3)n2)c1,–,< 5.00,–,–
COc1ccc(F)c(C(=O)Nc2cncc(-c3nccs3)c2)c1,–,< 5.00,–,–
COc1ccc(F)c(C(=O)Nc2cncc(-c3cc(-c4cn[nH]c4)cs3)c2)c1,3.6,5.27,19.6 µM,–
COc1ccc(F)c(C(=O)N(C)c2cncc(-c3cc(-c4cccnc4)cs3)c2)c1,–,< 5.00,–,–
COc1ccc(F)c(C(=O)Nc2cncc(-c3ncns3)c2)c1,–,< 5.00,–,–
COc1ccc(F)c(C(=O)Nc2cncc(-c3cc(-c4cccnc4)cs3)c2)c1F,7.7,5.59,20 µM,inhibition [2]: 81%
COc1ccc(Cl)c(C(=O)Nc2cncc(-c3cc(-c4cccnc4)cs3)c2)c1F,> 17.5,5.24,> 100 µM,inhibition [2]: 95%
CC(C)(C)Oc1ccc(C(=O)Nc2cncc(-c3cc(-c4cccnc4)cs3)c2)cc1,–,< 5.00,–,–
COc1ccc(F)c(C(=O)Nc2cccc(-c3cccs3)n2)c1,–,< 5.00,–,–
COc1ccc(F)c(C(=O)Nc2cncc(-c3cc(-c4ccncc4)cs3)c2)c1,–,< 5.00,–,–
COc1ccc(F)c(CNc2cncc(-c3cccs3)c2)c1,–,< 5.00,–,–
COc1cccc(C(=O)Nc2cncc(-c3cccs3)c2)c1F,11.2,5.33,52.8 µM,–
COc1ccc(C(=O)Nc2cncc(-c3cc(-c4cccnc4)cs3)c2)cc1F,–,< 5.00,–,–
COc1c(F)ccc(C(=O)Nc2cncc(-c3cc(-c4cccnc4)cs3)c2)c1F,–,< 5.00,–,–
COc1ccc(F)c(C(=O)Nc2cncc(-c3cc4ccccc4s3)c2)c1,5.4,5.06,47.3 µM,–
COc1ccc(F)c(C(=O)Nc2cncc(-c3ccccc3)c2)c1,–,< 5.00,–,–

Structure (SMILES),selectivity ratio [1],pEC50 (Enterovirus A71 [3]),CC50 at 72 h [4],other results
COc1ccc(F)c(C(=O)Nc2cncc(-c3cncs3)c2)c1,–,< 5.00,–,–
COc1cccc(C(=O)Nc2cncc(-c3cc(Br)cs3)c2)c1F,–,5.05,–,–
COc1ccc(F)c(C(=O)Nc2ccnc(-c3cccs3)c2)c1,–,< 5.00,–,–
COc1ccc(F)c(C(=O)Nc2cncc(-c3cc(-c4cccnc4F)cs3)c2)c1,> 11.5,5.06,> 100 µM,–
COc1cc(C(=O)Nc2cncc(-c3cccs3)c2)ccc1C,–,< 5.00,–,–
COc1ccc(C(=O)Nc2cncc(-c3cc(-c4cccnc4)cs3)c2)c(F)c1,–,< 5.00,–,–
COc1ccc(F)c(C(=O)Nc2cncc(-c3cc(-c4cnccc4C)cs3)c2)c1,2,5.04,18.1 µM,–
O=C(Nc1cncc(-c2cc(-c3cccnc3)cs2)c1)c1ccc(OC(F)(F)F)cc1,–,< 5.00,–,–
COc1ccc(F)c(C(=O)Nc2cncc(-c3cc(-c4cccnc4)cs3)c2)c1Cl,> 19.2,5.28,> 100 µM,pEC50 (Enterovirus A71 [5]): 5.40; logD [6]: 3.22; inhibition [2]: 93%; microsomal CLint [7]: 137 µL/min/mg; microsomal CLint [8]: 56 µL/min/mg; fraction unbound [9]: 0.0029; pEC50 (Human rhinovirus sp.): 5.16; half-life [10]: > 240 min; pEC50 (enterovirus D68 [11]): 5.43; pEC50 (Coxsackievirus): < 5.00; pEC50 (Enterovirus A71 [12]): 5.28; pEC50 (enterovirus D68 [13]): 5.29; half-life [14]: 25 min; half-life [15]: 10 min; half-life [16]: > 240 min
O=C(Nc1cncc(-c2cccs2)c1)c1c(F)cc(F)cc1F,8.4,5.27,45.3 µM,pEC50 (Enterovirus A71 [5]): 5.14; pEC50 (Human rhinovirus sp.): 5.12; pEC50 (enterovirus D68 [11]): 5.27; pEC50 (Coxsackievirus): 5.00; pEC50 (Enterovirus A71 [12]): 5.27; pEC50 (enterovirus D68 [13]): 5.30; pEC50 (Influenza A virus): < 5.00
COc1ccc(Cl)c(C(=O)Nc2cncc(-c3cc(-c4cccnc4)cs3)c2)c1,–,< 5.00,–,–
COc1ccc(F)c(C(=O)Nc2cncc(-c3cccs3)c2)c1,17.6,5.37,75.7 µM,pEC50 (Enterovirus A71 [5]): 5.26; fraction unbound [17]: 0.038; logD [6]: 3.52; inhibition [2]: 0%; microsomal CLint [7]: 127 µL/min/mg; microsomal CLint [8]: 44 µL/min/mg; fraction unbound [9]: 0.0165; pEC50 (Human rhinovirus sp.): 5.32; half-life [10]: > 240 min; pEC50 (enterovirus D68 [11]): 5.46; pEC50 (Coxsackievirus): 5.41; pEC50 (Enterovirus A71 [12]): 5.37; pEC50 (enterovirus D68 [13]): 5.44; half-life [14]: 31.5 min; pEC50 (Influenza A virus): < 5.00; half-life [15]: 11 min; half-life [16]: > 240 min
COc1ccc(F)c(C(=O)Nc2cncc(-c3cccnc3)c2)c1,–,< 5.00,–,–
COc1cccc(C(=O)Nc2cncc(-c3cc(-c4cccnc4)cs3)c2)c1F,3,5.14,21.3 µM,–
COc1cc(C(=O)Nc2cncc(-c3cc(-c4cccnc4)cs3)c2)ccc1F,–,< 5.00,–,–
CCOC(=O)c1ccc(OCCC2CCN(c3ccc(C)nn3)CC2)cc1 [PIRODAVIR],> 16.7,6.22,> 10 µM,–
COc1cc(C(=O)Nc2cncc(-c3cc(-c4cccnc4)cs3)c2)ccc1C,–,< 5.00,–,–
COc1ccc2c(c1)[nH]c1c(C)nccc12 [HARMINE],–,–,–,inhibition at 45 µM (Enterovirus A71 [18]): 40%; pEC50 (Herpes Simplexvirus): 5.48; CC50 [19]: > 20 µM; pEC50 (Human adenovirus sp.): 5.24; CC50 [20]: > 20 µM
COc1ccc(F)c(C(=O)Nc2cncc(-c3cn(-c4cccnc4)nn3)c2)c1,–,< 5.00,–,–
COc1cc(OC)cc(C(=O)Nc2cncc(-c3cc(-c4cccnc4)cs3)c2)c1,–,< 5.00,–,–
COc1ccc(C(=O)Nc2cncc(-c3cc(-c4cccnc4)cs3)c2)cc1OC,–,< 5.00,–,–
